From patent publication US7803546B2, “Method of screening for sensitivity to kinase inhibitor therapy” (Cedars-Sinai Medical Center, priority 2002, dated 2010)

Tests used:
[1] = system: IRESSA-resistant (IR) CWR22R tumors; assay: Treatment of IRESSA-resistant (IR) CWR22R tumor lines; conditions: after three weeks of treatment, tumor growth curves
[2] = system: non-small cell lung cancer; assay: Clinical response to TKI therapy in non-small cell lung cancer patients, correlated with EMP-1 expression; type: in vivo, human; conditions: NSCLC patients; EMP-1 detectable by TAQMAN
Protocol: The gene expression profiles of IR tumors were analyzed by gene chip analysis, using the gene arrays described in Alon et al., Proc. Natl. Acad. Sci. USA, vol. […] Presence of EMP-1 RNA was assessed with TAQMAN from paraffin samples.

[3] = system: androgen-independent (CWR22R) xenograft tumors
Protocol: (§1) A control (i.e., no TKI administered) is graphically depicted as well. This experiment was performed in an androgen-independent prostate xenograft model. […] The daily dosing was at the maximally tolerated dosage in the mice.
as §1

## COc1cc2ncnc(Nc3ccc(F)c(Cl)c3)c2cc1OCCCN1CCOCC1 [IRESSA, Gefitnib]
[1]
  Response of serially passaged tumors to IRESSA, generations F0-F3: demonstrated sensitivity
[2]
  Probability of response to therapy in individuals with EMP-1 expression above threshold: less than 10%
[3]; mouse, in vivo
  Tolerability of weekly dosing: well tolerated
[3]; summary range following IRESSA treatment (covers CWR22 and CWR22R)
  Decrease in tumor volume in this tumor model: 50-70%
